Measurements: patent US20070270418A1, “Inhibitors of P38 and Methods of Using the Same” (priority 2003, published 2007)

Legend:
Assay in all cases: Broad selectivity panel, 32P incorporation
Format in all cases: biochemical
[1] = biological target: T1, JNK3-His (Homo sapiens, UniProt P53779); conditions: 40 μM ATP, read-out: Percent inhibition JNK3-His; for inhibition at 0.1 µM: 0.1 μM compound; for inhibition at 1 µM: 1 μM compound
T1 construct: His; purchased Upstate (Charlottesville, Va.)
Description: (§1) Various compounds of the present invention are screened against a panel of 24 additional kinases (Upstate, Charlottesville, Va.). Compounds are tested 0.1 μM and 1 μM in reactions containing 40 μM ATP. Incorporation of radiolabeled phosphate (^32P) into each kinase substrate is measured in the presence and absence of test compound. Results are reported as the percent decrease in the amount of ^32P incorporated into the substrate in the presence of compound, compared to buffer control.

[2] = system: ROCK-II; conditions: 40 μM ATP
Description: as §1

[3] = biological target: T2, PDGFR α (Homo sapiens, UniProt P16234); conditions: 40 μM ATP, read-out: Percent inhibition PDGFR α; for inhibition at 0.1 µM: 0.1 μM compound; for inhibition at 1 µM: 1 μM compound
T2 construct: purchased Upstate (Charlottesville, Va.)
Description: as §1

[4] = biological target: T3, MKK6 (Homo sapiens, UniProt P52564); conditions: 40 μM ATP, read-out: Percent inhibition MKK6; for inhibition at 0.1 µM: 0.1 μM compound; for inhibition at 1 µM: 1 μM compound
T3 construct: purchased Upstate (Charlottesville, Va.)
T3 sequence (P52564 1-334): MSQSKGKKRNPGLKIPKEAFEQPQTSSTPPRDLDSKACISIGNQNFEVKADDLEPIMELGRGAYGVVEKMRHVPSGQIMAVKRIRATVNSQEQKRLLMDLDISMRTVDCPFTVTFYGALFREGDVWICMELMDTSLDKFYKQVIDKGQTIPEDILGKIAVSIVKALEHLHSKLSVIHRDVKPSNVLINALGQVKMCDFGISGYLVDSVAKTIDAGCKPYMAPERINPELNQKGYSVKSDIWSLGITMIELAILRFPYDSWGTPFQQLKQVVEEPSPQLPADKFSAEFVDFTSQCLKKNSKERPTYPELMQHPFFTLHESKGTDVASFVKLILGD
Description: as §1

[5] = biological target: T4, c-RAF (Homo sapiens, UniProt P04049); conditions: 40 μM ATP, read-out: Percent inhibition c-RAF; for inhibition at 0.1 µM: 0.1 μM compound; for inhibition at 1 µM: 1 μM compound
T4 construct: purchased Upstate (Charlottesville, Va.)
Description: as §1

[6] = biological target: T5, CaMKIV (Homo sapiens, UniProt Q16566); conditions: 40 μM ATP, read-out: Percent inhibition CaMKIV; for inhibition at 0.1 µM: 0.1 μM compound; for inhibition at 1 µM: 1 μM compound
T5 construct: purchased Upstate (Charlottesville, Va.)
T5 sequence (Q16566 1-473): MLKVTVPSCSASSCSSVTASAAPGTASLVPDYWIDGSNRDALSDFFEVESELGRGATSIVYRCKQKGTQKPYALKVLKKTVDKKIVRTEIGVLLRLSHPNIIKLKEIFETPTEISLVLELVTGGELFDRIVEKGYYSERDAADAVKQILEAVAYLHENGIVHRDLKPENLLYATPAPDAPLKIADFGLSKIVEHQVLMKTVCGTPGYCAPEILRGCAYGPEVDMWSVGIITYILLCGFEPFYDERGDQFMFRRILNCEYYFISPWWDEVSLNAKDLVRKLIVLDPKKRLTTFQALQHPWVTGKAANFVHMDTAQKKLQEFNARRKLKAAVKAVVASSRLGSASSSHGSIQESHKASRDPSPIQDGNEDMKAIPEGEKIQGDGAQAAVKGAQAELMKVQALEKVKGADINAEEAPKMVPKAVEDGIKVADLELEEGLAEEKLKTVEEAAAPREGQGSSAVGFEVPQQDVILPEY
Description: as §1

[7] = biological target: T6, MAPK2 (Homo sapiens, UniProt P28482); conditions: 40 μM ATP, read-out: Percent inhibition MAPK2; for inhibition at 0.1 µM: 0.1 μM compound; for inhibition at 1 µM: 1 μM compound
T6 construct: purchased Upstate (Charlottesville, Va.)
Description: as §1

[8] = biological target: T7, GSK3β (Homo sapiens, UniProt P49841); conditions: 40 μM ATP, read-out: Percent inhibition GSK3β; for inhibition at 0.1 µM: 0.1 μM compound; for inhibition at 1 µM: 1 μM compound
T7 construct: purchased Upstate (Charlottesville, Va.)
Description: as §1

[9] = biological target: T8, PKBβ (Homo sapiens, UniProt P31751); conditions: 40 μM ATP, read-out: Percent inhibition PKBβ; for inhibition at 0.1 µM: 0.1 μM compound; for inhibition at 1 µM: 1 μM compound
T8 construct: purchased Upstate (Charlottesville, Va.)
Description: as §1

[10] = biological target: T9, SAPK4 (Homo sapiens, UniProt O15264); conditions: 40 μM ATP, read-out: Percent inhibition SAPK4; for inhibition at 0.1 µM: 0.1 μM compound; for inhibition at 1 µM: 1 μM compound
T9 construct: purchased Upstate (Charlottesville, Va.)
T9 sequence (O15264 1-365): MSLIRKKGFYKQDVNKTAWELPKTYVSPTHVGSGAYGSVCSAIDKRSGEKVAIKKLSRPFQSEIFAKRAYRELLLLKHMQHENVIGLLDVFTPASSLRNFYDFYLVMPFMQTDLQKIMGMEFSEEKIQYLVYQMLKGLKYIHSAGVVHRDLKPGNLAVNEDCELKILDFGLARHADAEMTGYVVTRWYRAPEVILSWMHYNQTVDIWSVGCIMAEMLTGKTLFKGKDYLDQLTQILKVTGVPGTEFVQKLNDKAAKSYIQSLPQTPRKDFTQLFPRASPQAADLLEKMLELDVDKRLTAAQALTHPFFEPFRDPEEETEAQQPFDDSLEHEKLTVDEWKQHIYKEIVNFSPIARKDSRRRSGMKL
Description: as §1

T4 sequence (P04049 whole entry, species assumed): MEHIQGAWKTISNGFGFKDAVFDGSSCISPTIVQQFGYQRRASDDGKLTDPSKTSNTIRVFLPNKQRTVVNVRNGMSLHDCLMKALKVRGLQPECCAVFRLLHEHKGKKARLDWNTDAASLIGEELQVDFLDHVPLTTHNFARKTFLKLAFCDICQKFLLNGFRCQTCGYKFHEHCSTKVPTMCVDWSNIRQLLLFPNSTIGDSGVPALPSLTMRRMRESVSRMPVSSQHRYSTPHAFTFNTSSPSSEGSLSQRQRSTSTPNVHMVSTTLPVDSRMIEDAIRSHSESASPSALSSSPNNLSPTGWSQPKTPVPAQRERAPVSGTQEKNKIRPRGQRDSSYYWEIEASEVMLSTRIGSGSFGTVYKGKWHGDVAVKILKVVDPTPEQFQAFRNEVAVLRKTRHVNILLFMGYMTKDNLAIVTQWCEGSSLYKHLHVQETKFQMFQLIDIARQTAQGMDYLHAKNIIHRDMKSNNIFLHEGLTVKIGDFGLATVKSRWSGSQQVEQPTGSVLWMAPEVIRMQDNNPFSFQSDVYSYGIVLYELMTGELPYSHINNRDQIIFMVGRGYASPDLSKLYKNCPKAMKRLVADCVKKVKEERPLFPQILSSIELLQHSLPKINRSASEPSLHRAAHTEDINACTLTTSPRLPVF
T1 sequence (P53779 whole entry): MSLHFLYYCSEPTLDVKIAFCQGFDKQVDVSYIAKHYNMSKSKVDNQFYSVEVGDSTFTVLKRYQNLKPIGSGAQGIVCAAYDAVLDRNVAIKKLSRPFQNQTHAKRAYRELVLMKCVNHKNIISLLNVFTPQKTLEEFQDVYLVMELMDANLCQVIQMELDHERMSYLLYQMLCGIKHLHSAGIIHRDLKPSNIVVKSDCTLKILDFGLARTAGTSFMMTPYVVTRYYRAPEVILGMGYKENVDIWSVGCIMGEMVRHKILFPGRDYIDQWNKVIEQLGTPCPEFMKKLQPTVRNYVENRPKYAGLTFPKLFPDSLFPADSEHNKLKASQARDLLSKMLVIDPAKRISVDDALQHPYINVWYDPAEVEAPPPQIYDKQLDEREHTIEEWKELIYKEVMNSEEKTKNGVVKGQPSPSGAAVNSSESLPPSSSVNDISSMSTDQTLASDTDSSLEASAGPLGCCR
T7 sequence (P49841 whole entry, species assumed): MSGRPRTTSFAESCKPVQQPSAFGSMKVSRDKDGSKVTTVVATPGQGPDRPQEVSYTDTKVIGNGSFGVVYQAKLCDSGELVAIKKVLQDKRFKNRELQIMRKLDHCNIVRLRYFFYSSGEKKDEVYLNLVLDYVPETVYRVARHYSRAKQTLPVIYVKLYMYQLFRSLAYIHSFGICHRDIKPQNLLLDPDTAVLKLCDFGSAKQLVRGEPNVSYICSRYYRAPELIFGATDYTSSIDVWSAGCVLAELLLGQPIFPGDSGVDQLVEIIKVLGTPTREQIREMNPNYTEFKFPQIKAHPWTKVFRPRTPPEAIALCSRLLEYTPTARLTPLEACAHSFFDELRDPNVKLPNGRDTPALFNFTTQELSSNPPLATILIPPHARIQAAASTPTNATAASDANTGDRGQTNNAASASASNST
T2 sequence (P16234 24-1089, species assumed): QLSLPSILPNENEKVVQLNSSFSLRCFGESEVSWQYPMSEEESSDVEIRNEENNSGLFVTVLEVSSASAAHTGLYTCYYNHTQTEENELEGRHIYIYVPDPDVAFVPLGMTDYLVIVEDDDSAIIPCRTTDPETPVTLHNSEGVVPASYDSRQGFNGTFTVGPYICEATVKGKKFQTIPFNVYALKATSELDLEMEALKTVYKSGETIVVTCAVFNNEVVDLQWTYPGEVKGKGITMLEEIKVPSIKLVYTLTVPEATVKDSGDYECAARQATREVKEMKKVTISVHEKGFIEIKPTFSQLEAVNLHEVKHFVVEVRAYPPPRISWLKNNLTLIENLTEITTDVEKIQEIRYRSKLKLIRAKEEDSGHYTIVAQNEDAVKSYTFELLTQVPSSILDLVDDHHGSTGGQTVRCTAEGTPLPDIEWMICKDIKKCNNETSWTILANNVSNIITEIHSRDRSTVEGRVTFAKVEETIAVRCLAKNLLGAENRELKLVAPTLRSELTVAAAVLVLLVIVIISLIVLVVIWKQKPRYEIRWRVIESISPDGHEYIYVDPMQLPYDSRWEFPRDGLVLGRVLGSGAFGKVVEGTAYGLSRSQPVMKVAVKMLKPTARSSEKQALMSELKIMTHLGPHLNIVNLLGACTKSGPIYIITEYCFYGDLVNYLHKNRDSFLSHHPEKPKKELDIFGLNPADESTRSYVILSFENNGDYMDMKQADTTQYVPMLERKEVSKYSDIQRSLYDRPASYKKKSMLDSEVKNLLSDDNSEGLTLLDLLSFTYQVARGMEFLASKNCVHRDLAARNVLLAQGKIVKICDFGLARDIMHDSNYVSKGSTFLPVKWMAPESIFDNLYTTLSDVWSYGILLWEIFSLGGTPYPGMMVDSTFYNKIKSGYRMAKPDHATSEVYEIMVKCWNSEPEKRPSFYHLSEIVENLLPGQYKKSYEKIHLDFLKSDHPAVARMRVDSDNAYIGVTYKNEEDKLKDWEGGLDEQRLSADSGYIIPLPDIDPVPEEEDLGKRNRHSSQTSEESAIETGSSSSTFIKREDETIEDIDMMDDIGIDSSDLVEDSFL
T8 sequence (P31751 whole entry, species assumed): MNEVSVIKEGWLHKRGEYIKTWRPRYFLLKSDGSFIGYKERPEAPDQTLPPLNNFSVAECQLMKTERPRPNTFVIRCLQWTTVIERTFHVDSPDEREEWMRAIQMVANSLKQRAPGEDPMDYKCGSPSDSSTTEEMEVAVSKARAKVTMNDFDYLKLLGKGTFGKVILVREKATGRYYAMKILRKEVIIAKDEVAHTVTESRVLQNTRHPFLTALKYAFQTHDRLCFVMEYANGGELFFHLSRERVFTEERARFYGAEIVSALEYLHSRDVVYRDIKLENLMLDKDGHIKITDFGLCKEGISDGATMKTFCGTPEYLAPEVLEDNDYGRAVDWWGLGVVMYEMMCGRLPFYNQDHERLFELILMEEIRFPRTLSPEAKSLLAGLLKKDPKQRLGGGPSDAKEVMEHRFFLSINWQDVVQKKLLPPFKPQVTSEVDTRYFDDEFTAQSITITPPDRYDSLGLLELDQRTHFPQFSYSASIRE
T6 sequence (P28482 whole entry): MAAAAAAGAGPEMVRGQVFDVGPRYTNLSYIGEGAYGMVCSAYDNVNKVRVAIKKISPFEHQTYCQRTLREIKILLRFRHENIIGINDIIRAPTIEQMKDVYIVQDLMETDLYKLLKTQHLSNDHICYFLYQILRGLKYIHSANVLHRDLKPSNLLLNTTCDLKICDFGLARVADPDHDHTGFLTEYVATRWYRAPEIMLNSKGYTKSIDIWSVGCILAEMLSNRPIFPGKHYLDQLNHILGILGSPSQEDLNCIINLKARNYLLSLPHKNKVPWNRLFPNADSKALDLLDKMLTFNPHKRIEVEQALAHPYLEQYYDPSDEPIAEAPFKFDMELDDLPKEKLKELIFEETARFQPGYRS

| Structure (SMILES) | inhibition at 0.1 µM [1] | inhibition at 1 µM [1] | Percent inhibition ROCK-II ([2]; 0.1 μM compound) | Percent inhibition ROCK-II ([2]; 1 μM compound) | inhibition at 0.1 µM [3] | inhibition at 1 µM [3] | inhibition at 0.1 µM [4] | inhibition at 1 µM [4] | inhibition at 0.1 µM [5] | inhibition at 1 µM [5] | inhibition at 0.1 µM [6] | inhibition at 1 µM [6] | inhibition at 0.1 µM [7] | inhibition at 1 µM [7] | inhibition at 0.1 µM [8] | inhibition at 1 µM [8] | inhibition at 0.1 µM [9] | inhibition at 1 µM [9] | inhibition at 0.1 µM [10] | inhibition at 1 µM [10] |
| --- | --- | --- | --- | --- | --- | --- | --- | --- | --- | --- | --- | --- | --- | --- | --- | --- | --- | --- | --- | --- |
| CS(=O)(=O)N1CCC(Nc2nccc(-c3c(-c4ccc(F)cc4)nc4occn34)n2)CC1 [CCLXXIX] | 97% | 101% | 10 | 12 | 0% | -9% | 8% | 90% | 32% | 83% | 18% | -2% | 14% | 43% | 15% | 57% | 0% | -30% | 3% | 0% |
| CC(=O)N1CCC(Nc2nccc(-c3c(-c4ccc(F)cc4)nc4occn34)n2)CC1 [CCLXXVIII] | 78% | 100% | −6 | 6 | 23% | 17% | 26% | 83% | 26% | 66% | 8% | 21% | 18% | 42% | 16% | 66% | -3% | 41% | -3% | -4% |
| CN1[C@@H]2CC[C@H]1C[C@@H](Nc1nccc(-c3c(-c4ccc(F)cc4)nc4occn34)n1)C2 [CCLXXXI] | 19% | 75% | 10 | 9 | 11% | 21% | 19% | 76% | -4% | 8% | 12% | 33% | 10% | 23% | 6% | 19% | -12% | 13% | 2% | 7% |
| Fc1ccc(-c2nc3occn3c2-c2ccnc(NC3CCNCC3)n2)cc1 [CCLXXX] | 39% | 84% | 8 | 10 | 1% | 8% | 0% | 62% | 21% | 75% | -10% | 7% | -9% | 9% | 5% | 14% | -18% | 13% | 0% | 6% |
| CN(C)CC(C)(C)CNc1nccc(-c2c(-c3ccc(F)cc3)nc3occn23)n1 [CXIX] | 19% | 56% | 16 | −8 | 26% | 10% | 1% | 75% | -3% | 3% | 13% | 7% | 10% | 7% | 11% | 13% | -4% | -19% | 3% | -4% |
| Fc1ccc(-c2nc3occn3c2-c2ccnc(N[C@@H]3CN4CCC3CC4)n2)cc1 [LXXI] | -7% | 59% | −7 | 10 | 10% | 9% | -5% | 80% | 7% | 42% | 5% | 6% | -5% | 18% | -8% | 10% | -42% | -5% | -1% | 3% |
| Fc1ccc(-c2nc3occn3c2-c2ccnc(N[C@H]3CN4CCC3CC4)n2)cc1 [LXXXVII] | 19% | 61% | 2 | 8 | -6% | -11% | -4% | 54% | 15% | 58% | -12% | 10% | -4% | 14% | 6% | 8% | -26% | -29% | -3% | -1% |
